US11246929B2, “Combination of a protein kinase inhibitor and an additional chemotherapeutic agent” (Merck Patent GmbH, priority 2016, dated 2022)

Key:
[1] = tested on: NCI-H460 xenograft; format: in vivo
Description: The NCI-H460 was chosen as a model relatively insensitive to IR treatment.

[2] = tested on: human NCI-H526 SCLC xenograft; assay: NCI-H526 SCLC xenograft, combination with etoposide/cisplatin; format: in vivo
Description: The mice were acclimatized to the housing conditions for 1 week. […] Bedding consisted of aspen chips (E. Becker, Castrop-Rauxel). Room temperature was 24+/−2° C. and relative humidity was 50+/−10% at 15 air changes per hour. Drinking water (provided ad libitum) was supplemented with 1 mg/mL Chlorine and was adjusted to a pH of 6.5 with HCl. Sterile high protein maintenance diet for immunodeficient mice (Ssniff, Soest, product No V1244-72, γ-sterilized) was also provided ad libitum. The light cycle was set at 12 hrs light and 12 hrs darkness. Details of the study protocol are as follows:
Then the cell suspension (100 μL/animal) was subcutaneously inoculated in the right flank of immunodeficient CD1 mice.
Tumor measurements and calculations: When the tumors reached a volume of 96-214 mm^3 the animals were randomized into 7 treatment groups with 10 animals each. Tumor length (L) and width (W) were measured twice weekly by calipers. The tumor volume was calculated using the formula L×W2/2. Data were collected in Study Advantage™ (data collection system).
Treatment: dosing and scheduling per above.
T/C-value: The ability of a treatment to inhibit tumor growth was assessed at the end of each study by calculating the % T/C value according to following formulas: % T/C delta>0 calculation (mean): [(end tumor volume treatment−start tumor volume treatment)/(end tumor volume control−start tumor volume control)]×100] % T/C delta≤0 (regression) calculation (mean): [(end tumor volume treatment−start tumor volume treatment)/start tumor volume treatment]×100
Toxicity: The bodyweight change in % denotes the difference between the weight at start of treatment and the end of treatment. Changes of bodyweight during the treatment course are particularly important as it is considered a measure for presence or absence of treatment-related toxicity. A dosage producing a 20% body weight change (mean of group) or ≥10% drug deaths was considered an excessively toxic dosage. Animal body weights included the tumor weights.
Animals were treated with three 1-week cycles of chemotherapy consisting of Cisplatin (3 mg/kg once weekly) and Etoposide (4 mg/kg for three consecutive days per week).

[3] = tested on: A673; assay: SRB growth inhibition, 93 cell lines panel; format: cell-based; conditions: Homo sapiens; A673, muscle; read-out: GI50 of etoposide (±Compound 1)
Description: (§1) 90 μl of cells, after a 48-hour pre-growth period, were treated by mixing with 10 μl of the compound-containing media (resulting in a final DMSO concentration of 0.1%).
(§2) This is the drug concentration causing a 50% reduction compared to the net protein increase in control cells during the drug incubation period. In other words, G150 is IC50 corrected for time zero. […] TGI was calculated from Ti=Tz. […] It was calculated as 100×[(Ti−Tz)/Tz]=−50.

[4] = tested on: HT29; assay: SRB growth inhibition, 93 cell lines panel; format: cell-based; conditions: Homo sapiens, HT-29; HT29, colon; read-out: GI50 of etoposide (±Compound 1)
Description: as §1, §2

[5] = tested on: C33A; assay: SRB growth inhibition, 93 cell lines panel; format: cell-based; conditions: Homo sapiens, C-33-A, cervix, read-out: GI50 of etoposide (±Compound 1)
Description: as §1, §2

[6] = tested on: MINO; assay: SRB growth inhibition, 93 cell lines panel; format: cell-based; conditions: Homo sapiens, hematological, read-out: GI50 of etoposide (±Compound 1)
Description: as §1, §2

[7] = tested on: L-363; assay: SRB growth inhibition, 93 cell lines panel; format: cell-based; conditions: Homo sapiens; L-363, hematological; read-out: GI50 of etoposide (±Compound 1)
Description: as §1, §2

[8] = tested on: A375; assay: SRB growth inhibition, 93 cell lines panel; format: cell-based; conditions: Homo sapiens, A-375; A375, skin; read-out: GI50 of etoposide (±Compound 1)
Description: as §1, §2

[9] = tested on: MDAMB231; assay: SRB growth inhibition, 93 cell lines panel; format: cell-based; conditions: Homo sapiens, MDA-MB-231; MDAMB231, breast; read-out: GI50 of etoposide (±Compound 1)
Description: as §1, §2

[10] = tested on: 15M15C3; assay: SRB growth inhibition, 93 cell lines panel; format: cell-based; conditions: 15M15C3, bladder; read-out: GI50 of etoposide (±Compound 1)
Description: as §1, §2

[11] = tested on: K-562; assay: SRB growth inhibition, 93 cell lines panel; format: cell-based; conditions: Homo sapiens, K562; K-562, hematological; read-out: GI50 of etoposide (±Compound 1)
Description: as §1, §2

[12] = tested on: JIMT1; assay: SRB growth inhibition, 93 cell lines panel; format: cell-based; conditions: Homo sapiens, JIMT-1; JIMT1, breast; read-out: GI50 of etoposide (±Compound 1)
Description: as §1, §2

[13] = tested on: THP-1; assay: SRB growth inhibition, 93 cell lines panel; format: cell-based; conditions: Homo sapiens; THP-1, hematological; read-out: GI50 of etoposide (±Compound 1)
Description: as §1, §2

[14] = tested on: GRANTA-519; assay: SRB growth inhibition, 93 cell lines panel; format: cell-based; conditions: Homo sapiens; GRANTA-519, hematological; read-out: GI50 of etoposide (±Compound 1)
Description: as §1, §2

[15] = tested on: CAKI1; assay: SRB growth inhibition, 93 cell lines panel; format: cell-based; conditions: Homo sapiens, CAKI-1; CAKI1, kidney; read-out: GI50 of etoposide (±Compound 1)
Description: as §1, §2

[16] = tested on: SKMEL28; assay: SRB growth inhibition, 93 cell lines panel; format: cell-based; conditions: Homo sapiens, SK-MEL-28; SKMEL28, skin; read-out: GI50 of etoposide (±Compound 1)
Description: as §1, §2

[17] = tested on: KASUMI-1; assay: SRB growth inhibition, 93 cell lines panel; format: cell-based; conditions: Homo sapiens; KASUMI-1, hematological; read-out: GI50 of etoposide (±Compound 1)
Description: as §1, §2

[18] = tested on: CASKI; assay: SRB growth inhibition, 93 cell lines panel; format: cell-based; conditions: Homo sapiens, Ca-Ski, cervix, read-out: GI50 of etoposide (±Compound 1)
Description: as §1, §2

[19] = tested on: HS578T; assay: SRB growth inhibition, 93 cell lines panel; format: cell-based; conditions: Homo sapiens, Hs-578T, breast, read-out: GI50 of etoposide (±Compound 1)
Description: as §1, §2

[20] = tested on: BXPC3; assay: SRB growth inhibition, 93 cell lines panel; format: cell-based; conditions: Homo sapiens, BXPC-3; BXPC3, pancreas; read-out: GI50 of etoposide (±Compound 1)
Description: as §1, §2

[21] = tested on: HELA; assay: cells; conditions: Homo sapiens, read-out: GI50 of etoposide (±Compound 1)
Description: Cell growth and treatment were performed in 96-well microtitre plates CELLSTAR® (Greiner Bio-One, Germany). Cells harvested from exponential phase cultures by trypsinization or by splitting (in the case of cells growing in suspension) were plated in 90 μl of media at optimal seeding densities. The optimal seeding density for each cell line was determined to ensure exponential growth for the duration of the experiment. All cells growing without anticancer agents were sub-confluent by the end of the treatment, as determined by visual inspection.
90 μl of cells, after a 48-hour pre-growth period, were treated by mixing with 10 μl of the compound-containing media (resulting in a final DMSO concentration of 0.1%). The cells were allowed to grow at 37° C. for 72 (or 120) hours.
Cells were fixed to the surface by addition of 10% TCA (for adherent growing cells) or 50% TCA (for semi-adherent growing cell or cells growing in suspension). After an hour of incubation at 4° C. plates were washed twice with 200 μl of deionized water and dried. Cells were then stained with 100 μl of 0.04% w/v SRB. […]
Using these measurements, cellular responses can be calculated for incomplete inhibition of cell growth (GI), complete inhibition of cell growth (TGI) and net loss of cells (LC) due to compound activity. […] TGI was calculated from Ti=Tz. […] It was calculated as 100×[(Ti−Tz)/Tz]=−50.

COc1ccc([C@@H](O)c2cc(-c3ncnc4cc(N5CCOCC5)ccc34)c(F)cc2Cl)nn1 [Compound 1, (S)-[2-chloro-4-fluoro-5-(7-morpholin-4-yl-quinazolin-4-yl)-phenyl]-(6-methoxy-pyridazin-3-yl)-methanol] was tested, and the tumor response ([1]; 6 weeks IR (60 Gy total) + Compound 1 25 and 50 mg/kg po) was “regressed during the treatment and observation period up to approximately day 90”, the “tumor volume vs starting volume” value ([1]; 6 weeks IR + 50 mg/kg, 42 days of treatment plus 68 days observation) was “did not exceed their starting volume” and the tolerability ([1]; 6 weeks IR + Compound 1) was “generally well tolerated”. The efficacy by schedule ([2]; Compound 1 daily throughout the study vs separated from SoC by 7 h or days) was “better efficacy”, the body weight change ([2]; SoC combined with Compound 1) was “additional body weight loss” and the mean tumor volume ([2]; day 21, Compound 1 50 mg/kg daily + etoposide 4 mg/kg + cisplatin 3 mg/kg, n=10) was 50 mm^3. For the same molecule, the “decrease of mean tumor volume compared to starting volume” value ([2]; day 21, Compound 1 50 mg/kg daily + etoposide + cisplatin) was “about 67%”, the “animals showing complete response” value ([2]; day 28, combination arm) was 4/10 and the animals with regression ([2]; day 28, combination arm) was 1/10. For the same molecule, the “animals with stable disease” value ([2]; day 28, combination arm) was 3/10, the animals progression free ([2]; day 28, combination arm (Compound 1 + SoC)) was 9/10 and the antitumor activity ([2]; in combination with Etoposide and Cisplatin) was “significantly enhanced antitumor activity”.
With COc1cc([C@@H]2c3cc4c(cc3[C@@H](O[C@@H]3O[C@@H]5CO[C@@H](C)O[C@H]5[C@H](O)[C@H]3O)[C@H]3COC(=O)[C@H]23)OCO4)cc(OC)c1O [Etoposide] the GI50 [3] was 1080 nM, the GI50 [4] was 2220 nM and the GI50 [5] was 393 nM. It also gave a GI50 [6] of 236 nM, a GI50 [7] of 327 nM and a GI50 [8] of 378 nM. The GI50 [9] was 1940 nM, the GI50 [10] was 604 nM and the GI50 [11] was 277 nM. For the same molecule, the GI50 [12] was 17700 nM, the GI50 [13] was 110 nM and the GI50 [14] was 247 nM. The GI50 [15] was 520 nM, the GI50 [16] was 1890 nM and the GI50 [17] was 494 nM. For the same molecule, the GI50 [18] was 1450 nM, the GI50 [19] was 874 nM and the GI50 [20] was 7140 nM. For the same molecule, the GI50 [21] was 2360 nM.
